Values after ≈ are worked out from the molar mass of the structure shown.
Key:
Type in all cases: cell-based, Mycobacterium tuberculosis
[1] = system: M. tuberculosis clinical isolates, sensitive; assay: microbe, parasite or virus in culture; details: for MIC (μg/ml) against Clinical isolates Sensitive: Table I, agar dilution; for MIC: Mycobacterium tuberculosis, read-out: MIC (μg/ml) against Clinical isolates Sensitive
[2] = system: M. tuberculosis H37Rv ATCC 27294; assay: In vitro growth inhibition assay, BACTEC 460 TB system; parameters: key: +: If ΔGI of test vial is less than that of the control vial the culture was sensitive to the test compound; details: final concentration 6.25 μg/ml
M. tuberculosis 27294 = assay: In vitro agar dilution assay (MIC), reference strain; details: for MIC (μg/ml) against M. tuberculosis-27294: Table I; for MIC: Mycobacterium tuberculosis, 27294, Table I, read-out: MIC (μg/ml) against M. tuberculosis-27294

Structure (SMILES)	MIC (μg/ml) against Clinical isolates Sensitive [1]	Growth inhibition of M. tuberculosis 27294 [2]	MIC (μg/ml) against M. tuberculosis-27294 (M. tuberculosis 27294)	MIC [1]	MIC (M. tuberculosis 27294)
Cc1c(CN2CCN(C(c3ccccc3)c3ccccc3)CC2)cc(-c2ccccc2)n1NC(=O)c1cnccn1 [compound 30, N-(3-{[4-(diphenylmethyl)piperazinyl]methyl}-2-methyl-5-phenylpyrrolyl)-pyrazin-2-ylcarboxamide]	2.0 to 4.0 µg/mL	+	2.0 µg/mL (≈ 3.69 µM)		
Cc1c(CN2CCN(Cc3ccc4c(c3)OCO4)CC2)cc(-c2ccccc2)n1NC(=O)c1ccncc1 [compound 17, N-(3-{[4-(2H-benzo[d]1,3-dioxolan-5-ylmethyl)piperazinyl]methyl}-2-methyl-5-phenylpyrrolyl)-4-pyridylcarboxamide]	2.0 to 4.0 µg/mL	+	2.0 µg/mL (≈ 3.92 µM)		
Cc1c(CN2CCSCC2)cc(-c2ccc(Cl)cc2)n1NC(=O)c1ccncc1 [compound 89, N-[5-(4-chlorophenyl)-2-methyl-3-(1,4-thiazaperhydroin-4-ylmethyl)pyrrolyl]-4-pyridylcarboxamide]	2.0 to 8.0 µg/mL	+	1.0 µg/mL (≈ 2.34 µM)		
Cc1c(CN2CCN(C)CC2)cc(-c2ccccc2)n1NC(=O)c1ccncc1 [compound 16, N-{2-methyl-3-[(4-methylpiperazinyl)methyl]-5-phenylpyrrolyl}-4-pyridylcarboxamide]	2.0 to 4.0 µg/mL	+	2.0 µg/mL (≈ 5.13 µM)		
Cc1c(CN2CCN(Cc3ccc4c(c3)OCO4)CC2)cc(-c2ccc(Cl)cc2)n1-c1cccc2ccccc12 [compound 62, 5-[(4-{[5-(4-chlorophenyl)-2-methyl-1-naphthylpyrrol-3-yl]methyl}-piperazinyl)methyl]-2H-benzo[d]1,3-dioxolane]	>16.0 µg/mL	+	>16.0 µg/mL		
Cc1c(CN2CCN(c3ccc(F)cc3)CC2)cc(-c2ccc(Cl)cc2)n1-c1ccc(F)cc1F [compound 44, 1-{[1-(2,4-difluorophenyl)-5-(4-chlorophenyl)-2-methylpyrrol-3-yl]methyl}-4-(4-fluorophenyl)piperazine]		+		1 to 2 µg/mL (≈ 2.02 to 4.03 µM)	1 µg/mL (≈ 2.02 µM)
COc1ccccc1N1CCN(Cc2cc(C)n(-c3cccc4ccccc34)c2-c2ccc(Cl)cc2)CC1 [compound 63, 1-{[2-(4-chlorophenyl)-5-methyl-1-naphthylpyrrol-3-yl]methyl}-4-(2-methoxyphenyl)piperazine]	4.0 to 8.0 µg/mL	+	8.0 µg/mL (≈ 15.3 µM)		
Cc1c(CN2CCN(c3ccccn3)CC2)cc(-c2ccc(Cl)cc2)n1-c1cccc2ccccc12 [compound 61, 1-{[5-(4-chlorophenyl)-2-methyl-1-naphthylpyrrol-3-yl]methyl}-4-(2-pyridyl) piperazine]	4.0 to 8.0 µg/mL	+	4.0 µg/mL (≈ 8.11 µM)		
COc1ccccc1N1CCN(Cc2cc(-c3ccccc3)n(NC(=O)c3ccncc3)c2C)CC1 [compound 13, N-(3-{[4-(2-methoxyphenyl)piperazinyl]methyl}-2-methyl-5-phenylpyrrolyl)-4-pyridylcarboxamide]	0.5 to 2.0 µg/mL	+	0.5 µg/mL (≈ 1.04 µM)		
COc1ccccc1N1CCN(Cc2cc(C)n(NC(=O)c3cnccn3)c2-c2ccc(Cl)cc2)CC1 [compound 42, N-(2-(4-chlorophenyl)-3-{[4-(2-methoxyphenyl)piperazinyl]methyl}-5-methylpyrrolyl)pyrazin-2-ylcarboxamide]	8.0 µg/mL (≈ 15.5 µM)	+	8.0 µg/mL (≈ 15.5 µM)		
Cc1c(CN2CC[S+]([O-])CC2)cc(-c2ccccc2)n1-c1ccccc1 [compound 87, 4-[(2-methyl-1,5-diphenylpyrrol-3-yl)methyl]1,4-thiazaperhydroin-1-one]	8.0 to 16.0 µg/mL	+	8.0 µg/mL (≈ 21.9 µM)		
Cc1c(CN2CCN(c3cccc(C(F)(F)F)c3)CC2)cc(-c2ccc(Cl)cc2)n1NC(=O)c1cnccn1 [compound 39, N-(5-(4-chlorophenyl)-3-{[4-(3-trifluoromethylphenyl)piperazinyl]methyl}-2-methylpyrrolyl)pyrazin-2-ylcarboxamide]	4.0 to 8.0 µg/mL	+	4.0 µg/mL (≈ 7.21 µM)		
Cc1c(CN2CCN(c3ccc(F)cc3)CC2)cc(-c2ccccc2)n1NC(=O)c1cnccn1 [compound 25, N-(3-{[4-(4-fluorophenyl)piperazinyl]methyl}-2-methyl-5-phenylpyrrolyl)pyrazin-2-ylcarboxamide]	2.0 to 4.0 µg/mL	+	2.0 µg/mL (≈ 4.25 µM)		
Cc1c(CN2CCN(Cc3ccc4c(c3)OCO4)CC2)cc(-c2ccc(Cl)cc2)n1-c1ccc(F)cc1F [compound 50, 5-[(4-{[1-(2,4-difluorophenyl)-5-(4-chlorophenyl)-2-methylpyrrol-3-yl]-methyl}-piperazinyl)methyl]-2H-benzo[d]1,3-dioxolane]	2.0 to 4.0 µg/mL	+	2.0 µg/mL (≈ 3.73 µM)		
Cc1cc(CN2CCN(c3cccc(C(F)(F)F)c3)CC2)c(-c2ccccc2)n1-c1ccc(F)cc1F [compound 57, 1-{[1-(2,4-difluorophenyl)-5-methyl-2-phenylpyrrol-3-yl]methyl}-4-(3-trifluoromethylphenyl)piperazine]		+		> 16 µg/mL	> 16 µg/mL
CO[C@H]1/C=C/O[C@@]2(C)Oc3c(C)c(O)c4c(O)c(c(/C=N/N5CCN(C)CC5)c(O)c4c3C2=O)NC(=O)/C(C)=C\C=C\[C@H](C)[C@H](O)[C@@H](C)[C@@H](O)[C@@H](C)[C@H](OC(C)=O)[C@@H]1C [Rifampicin, reference compound]		+		0.25 µg/mL (≈ 0.304 µM)	0.25 µg/mL (≈ 0.304 µM)
Cc1cc(CN2CCN(C(c3ccccc3)c3ccccc3)CC2)c(-c2ccccc2)n1NC(=O)c1cnccn1 [compound 36, N-(3-{[4-(diphenylmethyl)piperazinyl]methyl}-5-methyl-2-phenylpyrrolyl) pyrazin-2-ylcarboxamide]	0.5 to 1.0 µg/mL	+	0.5 µg/mL (≈ 0.921 µM)		
Cc1c(CN2CCN(c3ccccn3)CC2)cc(-c2ccc(Cl)cc2)n1-c1ccc(F)cc1F [compound 47, 1-{[1-(2,4-difluorophenyl)-5-(4-chlorophenyl)-2-methylpyrrol-3-yl]methyl}-4-(2-pyridyl)piperazine]		+		0.25 to 1 µg/mL (≈ 0.522 to 2.09 µM)	0.25 µg/mL (≈ 0.522 µM)
Cc1cc(CN2CCN(c3ccccn3)CC2)c(-c2ccccc2)n1-c1ccc(F)cc1F [compound 58, 1-{[1-(2,4-difluorophenyl)-5-methyl-2-phenylpyrrol-3-yl]methyl}-4-(2-pyridyl) piperazine]		+		8 µg/mL (≈ 18 µM)	8 µg/mL (≈ 18 µM)
COc1ccccc1N1CCN(Cc2cc(-c3ccccc3)n(NC(=O)c3cnccn3)c2C)CC1 [compound 26, N-(3-{[4-(2-methoxyphenyl)piperazinyl]methyl}-2-methyl-5-phenylpyrrolyl) pyrazin-2-ylcarboxamide]	2.0 µg/mL (≈ 4.14 µM)	+	1.0 µg/mL (≈ 2.07 µM)		
Cc1c(CN2CCN(c3ccccn3)CC2)cc(-c2ccccc2)n1NC(=O)c1ccncc1 [compound 14, N-(3-{[4-(2-pyridyl)piperazinyl]methyl}-2-methyl-5-phenylpyrrolyl)-4-pyridylcarboxamide]	4.0 to 8.0 µg/mL	+	4.0 µg/mL (≈ 8.84 µM)		
Cc1c(CN2CCN(C(c3ccccc3)c3ccccc3)CC2)cc(-c2ccc(Cl)cc2)n1-c1ccc(F)cc1F [compound 48, 1-{[1-(2,4-difluorophenyl)-5-(4-chlorophenyl)-2-methylpyrrol-3-yl]methyl}-4-(4-diphenylmethyl)piperazine]	>16.0 µg/mL	+	>16.0 µg/mL		
Cc1c(CN2CCN(c3cccc(C(F)(F)F)c3)CC2)cc(-c2ccc(Cl)cc2)n1-c1cccc2ccccc12 [compound 60, 1-{[5-(4-chlorophenyl)-2-methyl-1-naphthylpyrrol-3-yl]methyl}-4-(3-trifluoromethylphenyl)piperazine]	2.0 to 8.0 µg/mL	+	4.0 µg/mL (≈ 7.14 µM)		
COc1ccccc1N1CCN(Cc2cc(-c3ccccc3)n(-c3ccc(F)cc3F)c2C)CC1 [compound 52, 1-{[1-(2,4-difluorophenyl)-2-methyl-5-phenylpyrrol-3-yl]methyl}-4-(2-methoxyphenyl)piperazine]		+		8 µg/mL (≈ 16.9 µM)	8 µg/mL (≈ 16.9 µM)
Cc1c(CN2CCN(Cc3ccc4c(c3)OCO4)CC2)cc(-c2ccccc2)n1NC(=O)c1cnccn1 [compound 29, N-(3-{[4-(2H-benzo[d]1,3-dioxolen-5-ylmethyl)piperazinyl]methyl}-2-methyl-5-phenylpyrrolyl)pyrazin-2-ylcarboxamide]	>16.0 µg/mL	+	>16.0 µg/mL		
